Test results taken from ChEMBL document CHEMBL4507273 (2021).
pKi: −log10 of the molar value.

Experiments:
[1] = molecular target: D(1A) dopamine receptor (Homo sapiens, UniProt P21728); test: GPCRScan assay: inhibition of D1; design: radioligand conc. used [nm] 0.6 – 1.3, parental cells HEKT; conditions: for pKi: read-out: Ki
[2] = molecular target: Ankyrin repeat and protein kinase domain-containing protein 1 (Homo sapiens) (UniProt Q8NFD2); conditions: Compound concentration 1000.0 nM
[3] = molecular target: Serine/threonine-protein kinase BRSK1 (Homo sapiens) (UniProt Q8TDC3); conditions: Compound concentration 1000.0 nM
[4] = molecular target: Calcium/calmodulin-dependent protein kinase type IV (Homo sapiens) (UniProt Q16566); conditions: Compound concentration 1000.0 nM
[5] = molecular target: Cyclin-dependent kinase 11A (Homo sapiens) (UniProt Q9UQ88); conditions: Compound concentration 1000.0 nM
[6] = molecular target: Cyclin-dependent kinase 3 (Homo sapiens) (UniProt Q00526); conditions: Compound concentration 1000.0 nM
[7] = molecular target: Cyclin-dependent kinase-like 1 (Homo sapiens) (UniProt Q00532); conditions: Compound concentration 1000.0 nM
[8] = molecular target: Dual specificity protein kinase CLK3 (Homo sapiens) (UniProt P49761); conditions: Compound concentration 1000.0 nM
[9] = molecular target: Serine/threonine-protein kinase 17A (Homo sapiens) (UniProt Q9UEE5); conditions: Compound concentration 1000.0 nM
[10] = test system: Epidermal growth factor receptor (Homo sapiens), P00533 [UNDEFINED MUTATION]; conditions: Compound concentration 1000.0 nM
[11] = molecular target: Ephrin type-A receptor 3 (Homo sapiens) (UniProt P29320); conditions: Compound concentration 1000.0 nM
[12] = molecular target: Receptor tyrosine-protein kinase erbB-4 (Homo sapiens) (UniProt Q15303); conditions: Compound concentration 1000.0 nM
[13] = molecular target: Mitogen-activated protein kinase 7 (Homo sapiens) (UniProt Q13164); conditions: Compound concentration 1000.0 nM
[14] = molecular target: Serine/threonine-protein kinase/endoribonuclease IRE1 (Homo sapiens) (UniProt O75460); conditions: Compound concentration 1000.0 nM
[15] = molecular target: Focal adhesion kinase 1 (Homo sapiens) (UniProt Q05397); conditions: Compound concentration 1000.0 nM
[16] = test system: Receptor-type tyrosine-protein kinase FLT3 (Homo sapiens), P36888 [R834Q]; conditions: Compound concentration 1000.0 nM
[17] = molecular target: Rhodopsin kinase GRK7 (Homo sapiens) (UniProt Q8WTQ7); conditions: Compound concentration 1000.0 nM
[18] = test system: Mast/stem cell growth factor receptor Kit (Homo sapiens), P10721 [D816V]; conditions: Compound concentration 1000.0 nM
[19] = molecular target: MAP/microtubule affinity-regulating kinase 4 (Homo sapiens) (UniProt Q96L34); conditions: Compound concentration 1000.0 nM
[20] = test system: Hepatocyte growth factor receptor (Homo sapiens), P08581 [M1250T]; conditions: Compound concentration 1000.0 nM
[21] = molecular target: Serine/threonine-protein kinase 38 (Homo sapiens) (UniProt Q15208); conditions: Compound concentration 1000.0 nM
[22] = molecular target: Serine/threonine-protein kinase Nek5 (Homo sapiens) (UniProt Q6P3R8); conditions: Compound concentration 1000.0 nM
[23] = molecular target: Phosphorylase b kinase regulatory subunit alpha, liver isoform (Homo sapiens) (UniProt P46019); conditions: Compound concentration 1000.0 nM
[24] = molecular target: Phosphatidylinositol 4-kinase beta (Homo sapiens) (UniProt Q9UBF8); conditions: Compound concentration 1000.0 nM
[25] = molecular target: cAMP-dependent protein kinase catalytic subunit alpha (Homo sapiens) (UniProt P17612); conditions: Compound concentration 1000.0 nM
[26] = test system: Proto-oncogene tyrosine-protein kinase receptor Ret (Homo sapiens), P07949 [M918T]; conditions: Compound concentration 1000.0 nM
[27] = molecular target: Ribosomal protein S6 kinase alpha-4 (Homo sapiens) (UniProt O75676); conditions: Compound concentration 1000.0 nM
[28] = molecular target: Ribosomal protein S6 kinase alpha-3 (Homo sapiens) (UniProt P51812); conditions: Compound concentration 1000.0 nM
[29] = molecular target: Ribosomal protein S6 kinase alpha-3 (Homo sapiens) (UniProt P51812); conditions: Compound concentration 1000.0 nM; remark: listed apart in the source
[30] = molecular target: Ribosomal protein S6 kinase alpha-6 (Homo sapiens) (UniProt Q9UK32); conditions: Compound concentration 1000.0 nM
[31] = molecular target: SRSF protein kinase 1 (Homo sapiens) (UniProt Q96SB4); conditions: Compound concentration 1000.0 nM
[32] = molecular target: Serine/threonine-protein kinase TAO2 (Homo sapiens) (UniProt Q9UL54); conditions: Compound concentration 1000.0 nM
[33] = molecular target: T1, Testis-specific serine/threonine-protein kinase 1 (Homo sapiens) (UniProt Q9BXA7); conditions: Compound concentration 1000.0 nM
T1 sequence (whole entry): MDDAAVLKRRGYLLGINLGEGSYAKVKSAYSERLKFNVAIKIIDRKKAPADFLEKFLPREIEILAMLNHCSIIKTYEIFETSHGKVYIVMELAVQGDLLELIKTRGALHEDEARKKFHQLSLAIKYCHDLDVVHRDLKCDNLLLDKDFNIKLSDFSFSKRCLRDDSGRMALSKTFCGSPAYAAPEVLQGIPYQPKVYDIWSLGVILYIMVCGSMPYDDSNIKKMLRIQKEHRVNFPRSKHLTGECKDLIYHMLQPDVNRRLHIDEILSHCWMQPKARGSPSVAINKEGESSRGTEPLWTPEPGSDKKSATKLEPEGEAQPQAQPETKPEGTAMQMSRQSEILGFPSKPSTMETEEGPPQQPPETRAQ

[34] = molecular target: Serine/threonine-protein kinase WNK3 (Homo sapiens) (UniProt Q9BYP7); conditions: Compound concentration 1000.0 nM
[35] = molecular target: Serine/threonine-protein kinase 32B (Homo sapiens) (UniProt Q9NY57); conditions: Compound concentration 1000.0 nM
[36] = molecular target: Mitogen-activated protein kinase kinase kinase 19 (Homo sapiens) (UniProt Q56UN5); conditions: Compound concentration 1000.0 nM
[37] = molecular target: 5-hydroxytryptamine receptor 7 (Homo sapiens, UniProt P34969); conditions: Compound concentration 10.0 uM
[38] = molecular target: Mu-type opioid receptor (Homo sapiens, UniProt P35372); conditions: Compound concentration 10.0 uM
[39] = molecular target: GABA-A receptor; anion channel (Rattus norvegicus) (UniProt O09028+P15431+P18506+P18508+P19969+P20236+P23574+P23576+P28471+P28473+P30191+P62813+P63079+P63138+Q91ZM7+Q9ES14); conditions: Compound concentration 10.0 uM

Sequence of Ribosomal protein S6 kinase alpha-3 (Homo sapiens) (P51812 whole entry): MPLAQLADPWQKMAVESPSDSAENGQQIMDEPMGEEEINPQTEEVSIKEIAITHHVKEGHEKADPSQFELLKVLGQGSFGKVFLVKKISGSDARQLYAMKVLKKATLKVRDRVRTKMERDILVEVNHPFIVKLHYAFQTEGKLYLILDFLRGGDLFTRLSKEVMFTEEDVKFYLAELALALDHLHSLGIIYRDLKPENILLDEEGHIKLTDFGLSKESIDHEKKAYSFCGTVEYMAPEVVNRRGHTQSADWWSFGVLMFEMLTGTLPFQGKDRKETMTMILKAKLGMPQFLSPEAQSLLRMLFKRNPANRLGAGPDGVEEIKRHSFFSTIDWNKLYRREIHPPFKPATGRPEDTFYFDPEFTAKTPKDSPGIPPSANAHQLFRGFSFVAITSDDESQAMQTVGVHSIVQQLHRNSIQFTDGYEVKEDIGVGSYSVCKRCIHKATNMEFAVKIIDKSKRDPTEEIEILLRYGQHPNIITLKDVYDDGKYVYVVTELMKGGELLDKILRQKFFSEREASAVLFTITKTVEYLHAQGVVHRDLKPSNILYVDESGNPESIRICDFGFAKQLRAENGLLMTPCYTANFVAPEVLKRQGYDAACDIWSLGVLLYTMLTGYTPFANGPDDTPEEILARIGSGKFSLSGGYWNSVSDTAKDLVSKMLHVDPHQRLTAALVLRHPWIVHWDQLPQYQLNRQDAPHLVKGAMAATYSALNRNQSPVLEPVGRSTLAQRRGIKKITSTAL
Sequence of D(1A) dopamine receptor (P21728 whole entry, the tested form may be a part): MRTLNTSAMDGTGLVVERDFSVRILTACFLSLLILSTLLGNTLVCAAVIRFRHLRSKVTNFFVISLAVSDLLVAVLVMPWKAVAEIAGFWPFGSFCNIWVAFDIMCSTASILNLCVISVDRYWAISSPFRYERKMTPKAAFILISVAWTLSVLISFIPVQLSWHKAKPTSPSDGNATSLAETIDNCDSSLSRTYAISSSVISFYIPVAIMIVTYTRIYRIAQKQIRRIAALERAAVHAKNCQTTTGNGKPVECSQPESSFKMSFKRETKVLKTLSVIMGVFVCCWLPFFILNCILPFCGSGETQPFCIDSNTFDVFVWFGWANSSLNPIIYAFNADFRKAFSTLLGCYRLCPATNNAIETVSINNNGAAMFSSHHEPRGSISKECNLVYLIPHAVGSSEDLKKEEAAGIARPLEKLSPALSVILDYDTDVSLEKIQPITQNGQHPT
Sequence of Dual specificity protein kinase CLK3 (Homo sapiens) (P49761 whole entry, looked up): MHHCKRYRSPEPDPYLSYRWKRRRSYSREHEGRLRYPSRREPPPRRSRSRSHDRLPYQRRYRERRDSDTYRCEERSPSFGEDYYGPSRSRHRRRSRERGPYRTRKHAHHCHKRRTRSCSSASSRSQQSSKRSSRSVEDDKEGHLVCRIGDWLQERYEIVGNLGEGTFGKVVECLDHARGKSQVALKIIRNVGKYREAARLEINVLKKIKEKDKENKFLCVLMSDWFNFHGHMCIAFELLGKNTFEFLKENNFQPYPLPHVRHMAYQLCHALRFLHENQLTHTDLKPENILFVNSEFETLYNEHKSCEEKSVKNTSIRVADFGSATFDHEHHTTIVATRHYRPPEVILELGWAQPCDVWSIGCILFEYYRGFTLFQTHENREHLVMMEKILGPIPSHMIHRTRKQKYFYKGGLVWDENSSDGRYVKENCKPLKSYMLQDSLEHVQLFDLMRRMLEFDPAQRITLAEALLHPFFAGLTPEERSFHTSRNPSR
Sequence of Serine/threonine-protein kinase TAO2 (Homo sapiens) (Q9UL54 whole entry): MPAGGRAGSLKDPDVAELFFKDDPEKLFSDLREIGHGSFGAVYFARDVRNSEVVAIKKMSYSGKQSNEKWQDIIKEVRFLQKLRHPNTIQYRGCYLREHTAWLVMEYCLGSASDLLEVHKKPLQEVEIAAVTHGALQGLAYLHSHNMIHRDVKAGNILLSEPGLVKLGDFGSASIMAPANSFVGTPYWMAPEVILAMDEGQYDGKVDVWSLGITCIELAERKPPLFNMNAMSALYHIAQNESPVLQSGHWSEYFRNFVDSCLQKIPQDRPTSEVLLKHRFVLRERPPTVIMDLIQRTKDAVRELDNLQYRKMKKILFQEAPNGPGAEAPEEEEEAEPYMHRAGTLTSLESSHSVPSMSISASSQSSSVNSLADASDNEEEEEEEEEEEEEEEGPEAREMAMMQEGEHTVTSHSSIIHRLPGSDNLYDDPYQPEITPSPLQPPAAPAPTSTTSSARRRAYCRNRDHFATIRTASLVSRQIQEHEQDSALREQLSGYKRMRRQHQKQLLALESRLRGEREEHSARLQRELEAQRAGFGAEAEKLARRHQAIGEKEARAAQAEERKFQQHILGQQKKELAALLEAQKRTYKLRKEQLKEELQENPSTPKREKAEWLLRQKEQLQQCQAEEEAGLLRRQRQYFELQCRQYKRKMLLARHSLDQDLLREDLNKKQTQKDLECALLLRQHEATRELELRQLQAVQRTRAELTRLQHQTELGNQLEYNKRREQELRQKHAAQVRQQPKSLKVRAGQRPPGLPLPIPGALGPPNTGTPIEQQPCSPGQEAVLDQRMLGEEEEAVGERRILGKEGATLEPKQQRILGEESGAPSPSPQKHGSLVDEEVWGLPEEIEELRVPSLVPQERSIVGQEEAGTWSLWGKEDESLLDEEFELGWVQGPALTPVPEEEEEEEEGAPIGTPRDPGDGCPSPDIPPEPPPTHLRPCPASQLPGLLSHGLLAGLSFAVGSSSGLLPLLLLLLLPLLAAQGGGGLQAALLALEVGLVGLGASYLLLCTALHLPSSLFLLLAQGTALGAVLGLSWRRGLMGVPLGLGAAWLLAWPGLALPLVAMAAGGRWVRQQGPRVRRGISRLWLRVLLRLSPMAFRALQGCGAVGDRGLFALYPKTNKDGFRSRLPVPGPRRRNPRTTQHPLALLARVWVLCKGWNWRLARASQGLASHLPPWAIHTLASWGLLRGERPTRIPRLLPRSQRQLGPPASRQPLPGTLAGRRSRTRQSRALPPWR
Sequence of Calcium/calmodulin-dependent protein kinase type IV (Homo sapiens) (Q16566 whole entry): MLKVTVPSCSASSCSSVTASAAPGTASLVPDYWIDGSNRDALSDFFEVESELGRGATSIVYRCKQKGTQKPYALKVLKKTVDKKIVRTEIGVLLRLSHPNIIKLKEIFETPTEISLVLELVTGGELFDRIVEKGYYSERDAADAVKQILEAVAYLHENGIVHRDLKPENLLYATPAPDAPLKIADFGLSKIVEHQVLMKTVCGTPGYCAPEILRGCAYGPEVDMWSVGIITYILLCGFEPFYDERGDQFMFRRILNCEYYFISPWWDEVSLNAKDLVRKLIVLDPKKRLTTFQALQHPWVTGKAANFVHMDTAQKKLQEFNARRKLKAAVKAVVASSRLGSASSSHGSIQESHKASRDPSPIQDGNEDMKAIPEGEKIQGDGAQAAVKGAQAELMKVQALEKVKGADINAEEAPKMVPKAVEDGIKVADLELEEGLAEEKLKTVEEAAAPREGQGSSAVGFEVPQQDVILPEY
Sequence of Ankyrin repeat and protein kinase domain-containing protein 1 (Homo sapiens) (Q8NFD2 whole entry, the tested form may be a part): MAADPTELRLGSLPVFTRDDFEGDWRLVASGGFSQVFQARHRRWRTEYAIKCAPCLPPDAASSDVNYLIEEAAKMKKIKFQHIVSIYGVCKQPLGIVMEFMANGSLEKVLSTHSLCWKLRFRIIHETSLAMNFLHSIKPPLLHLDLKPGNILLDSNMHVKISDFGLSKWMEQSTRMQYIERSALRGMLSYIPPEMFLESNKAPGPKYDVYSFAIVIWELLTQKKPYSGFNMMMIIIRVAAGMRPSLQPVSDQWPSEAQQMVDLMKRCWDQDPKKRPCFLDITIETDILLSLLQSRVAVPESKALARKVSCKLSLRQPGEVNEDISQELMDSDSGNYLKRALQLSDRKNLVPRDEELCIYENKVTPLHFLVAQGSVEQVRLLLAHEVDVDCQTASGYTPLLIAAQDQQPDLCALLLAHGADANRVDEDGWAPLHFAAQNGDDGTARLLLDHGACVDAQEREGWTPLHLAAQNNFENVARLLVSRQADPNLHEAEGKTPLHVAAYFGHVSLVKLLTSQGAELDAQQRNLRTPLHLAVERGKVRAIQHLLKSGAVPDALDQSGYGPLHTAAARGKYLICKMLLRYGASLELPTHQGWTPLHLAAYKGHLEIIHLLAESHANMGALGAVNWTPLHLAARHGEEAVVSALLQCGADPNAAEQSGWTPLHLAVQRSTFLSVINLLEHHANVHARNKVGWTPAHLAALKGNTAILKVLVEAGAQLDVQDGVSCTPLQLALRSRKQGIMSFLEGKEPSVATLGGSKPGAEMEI
Sequence of Serine/threonine-protein kinase 17A (Homo sapiens) (Q9UEE5 whole entry): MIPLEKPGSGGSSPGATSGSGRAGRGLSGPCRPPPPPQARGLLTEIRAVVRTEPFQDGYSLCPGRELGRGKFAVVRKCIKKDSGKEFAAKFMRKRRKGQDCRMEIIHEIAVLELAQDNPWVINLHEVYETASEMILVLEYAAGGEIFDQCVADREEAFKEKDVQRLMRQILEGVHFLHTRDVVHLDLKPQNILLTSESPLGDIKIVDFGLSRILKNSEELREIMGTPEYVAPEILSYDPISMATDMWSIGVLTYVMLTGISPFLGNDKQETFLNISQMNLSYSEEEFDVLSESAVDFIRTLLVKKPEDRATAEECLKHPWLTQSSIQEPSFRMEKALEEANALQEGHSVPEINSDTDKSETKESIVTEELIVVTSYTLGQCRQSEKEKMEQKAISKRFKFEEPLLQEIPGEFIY
Sequence of Serine/threonine-protein kinase 32B (Homo sapiens) (Q9NY57 whole entry): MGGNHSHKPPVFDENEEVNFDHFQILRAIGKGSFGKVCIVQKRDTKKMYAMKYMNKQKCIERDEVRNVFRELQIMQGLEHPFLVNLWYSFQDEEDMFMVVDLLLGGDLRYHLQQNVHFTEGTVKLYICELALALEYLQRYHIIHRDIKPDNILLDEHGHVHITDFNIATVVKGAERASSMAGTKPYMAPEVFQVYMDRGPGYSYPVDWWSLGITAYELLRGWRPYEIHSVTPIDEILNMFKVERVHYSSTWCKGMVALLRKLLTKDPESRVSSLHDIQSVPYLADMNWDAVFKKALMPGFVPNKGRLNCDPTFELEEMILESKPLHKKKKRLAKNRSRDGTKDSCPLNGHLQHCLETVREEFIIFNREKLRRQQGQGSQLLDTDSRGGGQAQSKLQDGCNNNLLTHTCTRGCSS

Row | SMILES | pKi [1] | residual activity [2] [%] | residual activity [3] [%] | residual activity [4] [%] | residual activity [5] [%] | residual activity [6] [%] | residual activity [7] [%] | residual activity [8] [%] | residual activity [9] [%] | residual activity [10] [%] | residual activity [11] [%] | residual activity [12] [%] | residual activity [13] [%] | residual activity [14] [%] | residual activity [15] [%] | residual activity [16] [%] | residual activity [17] [%] | residual activity [18] [%] | residual activity [19] [%] | residual activity [20] [%] | further results
1 | CNCc1ccccc1-c1csc([C@@H](C)Nc2nc(C)nc3cc(OC)c(OC)cc23)c1 [BAY-293] | 5.90 | 76 | 87 | 88 | 91 | 100 | 93 | 100 | 100 | 82 | 87 | 97 | 97 | 100 | 86 | 79 | 83 | 81 | 100 | 79 | residual activity [21]: 60%; residual activity [22]: 99%; residual activity [23]: 100%; residual activity [24]: 82%; residual activity [25]: 100%; residual activity [26]: 70%; residual activity [27]: 79%; residual activity [28]: 80%; residual activity [29]: 76%; residual activity [30]: 85%; residual activity [31]: 90%; residual activity [32]: 86%; residual activity [33]: 59%; residual activity [34]: 100%; residual activity [35]: 100%; residual activity [36]: 71%; inhibition [37]: 76.2%; inhibition [38]: 46.8%; inhibition [39]: 0.89%
2 | CNCc1ccccc1-c1csc([C@H](C)Nc2nc(C)nc3cc(OC)c(OC)cc23)c1 [BAY-294] | 6.14 | 90 | 89 | 99 | 100 | 100 | 100 | 100 | 100 | 98 | 100 | 100 | 100 | 100 | 92 | 82 | 89 | 100 | 100 | 96 | Ki ([1]; read-out: pKi (converted)): 0.562 µM; residual activity [21]: 87%; residual activity [22]: 100%; residual activity [23]: 100%; residual activity [24]: 74%; residual activity [25]: 100%; residual activity [26]: 99%; residual activity [27]: 100%; residual activity [28]: 100%; residual activity [29]: 78%; residual activity [30]: 100%; residual activity [31]: 100%; residual activity [32]: 90%; residual activity [33]: 93%; residual activity [34]: 98%; residual activity [35]: 100%; residual activity [36]: 78%; inhibition [37]: 70.7%; inhibition [38]: 67.3%; inhibition [39]: -1.27%
